Measured values published in US9682995B2, “Amino-substituted isothiazoles” (BAYER PHARMA AKTIENGESELLSCHAFT, priority 2013, dated 2017).

Legend:
Assay in all cases: Kinase Profiling (KINOMEscan)
Assay type in all cases: binding
[1] = biological target: 456 kinases (of these 395 non-mutant kinases) (Homo sapiens, UniProt P78368); settings: CSNK1G2; 10 μM
[2] = biological target: 456 kinases (of these 395 non-mutant kinases) (Homo sapiens, UniProt P30530); settings: AXL; 10 μM
[3] = biological target: 456 kinases (of these 395 non-mutant kinases) (Homo sapiens, UniProt O75385); settings: ULK1; 10 μM
[4] = biological target: 456 kinases (of these 395 non-mutant kinases) (Homo sapiens, UniProt P46734); settings: MEK3; 10 μM
[5] = biological target: 456 kinases (of these 395 non-mutant kinases) (Homo sapiens, UniProt Q05655); settings: PRKCD; 10 μM
[6] = biological target: 456 kinases (of these 395 non-mutant kinases) (Homo sapiens, UniProt Q8NE63); settings: HIPK4; 10 μM
[7] = biological target: 456 kinases (of these 395 non-mutant kinases) (Homo sapiens, UniProt Q92772); settings: CDKL2; 10 μM
[8] = biological target: 456 kinases (of these 395 non-mutant kinases) (Homo sapiens, UniProt P35590); settings: TIE1; 10 μM
[9] = biological target: 456 kinases (of these 395 non-mutant kinases) (Homo sapiens, UniProt Q16659); settings: ERK3; 10 μM
[10] = biological target: 456 kinases (of these 395 non-mutant kinases) (Homo sapiens, UniProt O75747); settings: PIK3C2G; 10 μM
[11] = biological target: 456 kinases (of these 395 non-mutant kinases) (Homo sapiens, UniProt Q13233); settings: MAP3K1; 10 μM
[12] = biological target: 456 kinases (of these 395 non-mutant kinases) (Homo sapiens, UniProt Q9Y463); settings: DYRK1B; 10 μM
[13] = biological target: 456 kinases (of these 395 non-mutant kinases) (Homo sapiens, UniProt Q13882); settings: BRK; 10 μM
[14] = biological target: 456 kinases (of these 395 non-mutant kinases) (Homo sapiens, UniProt P51956); settings: NEK3; 10 μM
[15] = biological target: 456 kinases (of these 395 non-mutant kinases) (Homo sapiens, UniProt P08581); settings: MET; 10 μM
Chain of 456 kinases (of these 395 non-mutant kinases) (Homo sapiens, UniProt P08581) (P08581 25-1390 limits assumed, change not shown): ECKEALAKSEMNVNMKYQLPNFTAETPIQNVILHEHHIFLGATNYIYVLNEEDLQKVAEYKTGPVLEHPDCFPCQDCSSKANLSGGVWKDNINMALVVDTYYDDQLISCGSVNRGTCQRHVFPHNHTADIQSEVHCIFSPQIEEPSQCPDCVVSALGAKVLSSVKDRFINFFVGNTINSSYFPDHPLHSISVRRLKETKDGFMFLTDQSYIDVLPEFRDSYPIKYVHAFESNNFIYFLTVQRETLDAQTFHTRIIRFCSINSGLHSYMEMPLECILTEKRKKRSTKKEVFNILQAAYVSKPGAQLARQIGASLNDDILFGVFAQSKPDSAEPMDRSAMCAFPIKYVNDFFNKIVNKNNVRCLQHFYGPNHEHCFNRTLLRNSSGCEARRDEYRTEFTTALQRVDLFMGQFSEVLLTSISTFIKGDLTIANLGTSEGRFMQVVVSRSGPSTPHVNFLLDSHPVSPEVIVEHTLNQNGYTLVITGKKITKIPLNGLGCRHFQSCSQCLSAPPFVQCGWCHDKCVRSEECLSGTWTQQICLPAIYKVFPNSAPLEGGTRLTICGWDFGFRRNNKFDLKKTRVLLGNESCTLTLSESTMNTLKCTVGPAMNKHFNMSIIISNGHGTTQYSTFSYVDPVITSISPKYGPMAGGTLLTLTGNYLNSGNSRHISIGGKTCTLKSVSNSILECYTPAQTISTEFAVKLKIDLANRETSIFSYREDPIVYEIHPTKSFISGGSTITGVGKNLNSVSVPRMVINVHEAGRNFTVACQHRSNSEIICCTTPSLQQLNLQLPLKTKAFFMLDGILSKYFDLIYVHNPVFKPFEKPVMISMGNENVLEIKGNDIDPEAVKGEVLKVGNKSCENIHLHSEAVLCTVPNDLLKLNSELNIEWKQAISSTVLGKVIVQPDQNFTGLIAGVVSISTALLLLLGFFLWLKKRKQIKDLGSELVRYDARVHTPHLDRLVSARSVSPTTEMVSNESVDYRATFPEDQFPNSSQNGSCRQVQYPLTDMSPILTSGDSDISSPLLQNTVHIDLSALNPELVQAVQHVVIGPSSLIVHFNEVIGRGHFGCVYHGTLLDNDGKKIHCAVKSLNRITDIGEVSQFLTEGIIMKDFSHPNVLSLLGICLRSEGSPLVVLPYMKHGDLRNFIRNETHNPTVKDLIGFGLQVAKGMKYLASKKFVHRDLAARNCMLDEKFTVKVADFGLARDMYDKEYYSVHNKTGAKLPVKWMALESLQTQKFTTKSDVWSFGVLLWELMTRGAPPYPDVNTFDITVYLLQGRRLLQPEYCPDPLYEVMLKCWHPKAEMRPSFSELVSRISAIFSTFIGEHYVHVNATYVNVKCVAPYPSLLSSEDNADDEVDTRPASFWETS

[16] = biological target: 456 kinases (of these 395 non-mutant kinases) (Homo sapiens, UniProt Q9UK32); settings: 10 μM
[17] = biological target: 456 kinases (of these 395 non-mutant kinases) (Homo sapiens, UniProt Q12852); settings: DLK; 10 μM
[18] = biological target: 456 kinases (of these 395 non-mutant kinases) (Homo sapiens, UniProt O00444); settings: PLK4; 10 μM
[19] = biological target: 456 kinases (of these 395 non-mutant kinases) (Homo sapiens, UniProt P42336, H1047L); settings: PIK3CA(H1047L); 10 μM
[20] = biological target: 456 kinases (of these 395 non-mutant kinases) (Homo sapiens, UniProt P11309); settings: PIM1; 10 μM
[21] = biological target: 456 kinases (of these 395 non-mutant kinases) (Homo sapiens, UniProt Q16288); settings: TRKC; 10 μM
Chain of 456 kinases (of these 395 non-mutant kinases) (Homo sapiens, UniProt Q16288) (Q16288 32-839 limits assumed, change not shown): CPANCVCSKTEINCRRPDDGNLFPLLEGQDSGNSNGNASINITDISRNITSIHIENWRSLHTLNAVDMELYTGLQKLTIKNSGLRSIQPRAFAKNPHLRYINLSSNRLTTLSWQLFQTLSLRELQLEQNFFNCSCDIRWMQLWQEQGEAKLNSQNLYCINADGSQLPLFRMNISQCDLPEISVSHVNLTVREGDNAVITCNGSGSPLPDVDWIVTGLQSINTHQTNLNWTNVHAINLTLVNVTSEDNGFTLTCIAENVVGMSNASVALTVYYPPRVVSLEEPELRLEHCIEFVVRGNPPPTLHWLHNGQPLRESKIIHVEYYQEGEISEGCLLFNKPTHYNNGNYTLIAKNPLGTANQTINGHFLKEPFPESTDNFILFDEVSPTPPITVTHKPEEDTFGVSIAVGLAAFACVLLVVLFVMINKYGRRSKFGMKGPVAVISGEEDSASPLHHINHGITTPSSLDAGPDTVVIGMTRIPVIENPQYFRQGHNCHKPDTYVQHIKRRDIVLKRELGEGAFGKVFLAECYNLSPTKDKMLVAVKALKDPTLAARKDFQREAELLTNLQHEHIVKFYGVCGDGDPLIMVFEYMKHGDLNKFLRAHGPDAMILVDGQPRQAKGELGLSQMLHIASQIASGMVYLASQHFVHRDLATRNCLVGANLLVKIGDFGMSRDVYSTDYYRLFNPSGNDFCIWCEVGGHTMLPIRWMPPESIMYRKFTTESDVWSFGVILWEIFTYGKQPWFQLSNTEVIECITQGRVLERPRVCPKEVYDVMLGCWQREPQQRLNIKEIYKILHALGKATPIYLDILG

[22] = biological target: 456 kinases (of these 395 non-mutant kinases) (Homo sapiens, UniProt Q15569); settings: TESK1; 10 μM
[23] = biological target: 456 kinases (of these 395 non-mutant kinases) (Homo sapiens, UniProt P29317); settings: EPHA2; 10 μM
Chain of 456 kinases (of these 395 non-mutant kinases) (Homo sapiens, UniProt P29317) (P29317 24-976 limits assumed, change not shown): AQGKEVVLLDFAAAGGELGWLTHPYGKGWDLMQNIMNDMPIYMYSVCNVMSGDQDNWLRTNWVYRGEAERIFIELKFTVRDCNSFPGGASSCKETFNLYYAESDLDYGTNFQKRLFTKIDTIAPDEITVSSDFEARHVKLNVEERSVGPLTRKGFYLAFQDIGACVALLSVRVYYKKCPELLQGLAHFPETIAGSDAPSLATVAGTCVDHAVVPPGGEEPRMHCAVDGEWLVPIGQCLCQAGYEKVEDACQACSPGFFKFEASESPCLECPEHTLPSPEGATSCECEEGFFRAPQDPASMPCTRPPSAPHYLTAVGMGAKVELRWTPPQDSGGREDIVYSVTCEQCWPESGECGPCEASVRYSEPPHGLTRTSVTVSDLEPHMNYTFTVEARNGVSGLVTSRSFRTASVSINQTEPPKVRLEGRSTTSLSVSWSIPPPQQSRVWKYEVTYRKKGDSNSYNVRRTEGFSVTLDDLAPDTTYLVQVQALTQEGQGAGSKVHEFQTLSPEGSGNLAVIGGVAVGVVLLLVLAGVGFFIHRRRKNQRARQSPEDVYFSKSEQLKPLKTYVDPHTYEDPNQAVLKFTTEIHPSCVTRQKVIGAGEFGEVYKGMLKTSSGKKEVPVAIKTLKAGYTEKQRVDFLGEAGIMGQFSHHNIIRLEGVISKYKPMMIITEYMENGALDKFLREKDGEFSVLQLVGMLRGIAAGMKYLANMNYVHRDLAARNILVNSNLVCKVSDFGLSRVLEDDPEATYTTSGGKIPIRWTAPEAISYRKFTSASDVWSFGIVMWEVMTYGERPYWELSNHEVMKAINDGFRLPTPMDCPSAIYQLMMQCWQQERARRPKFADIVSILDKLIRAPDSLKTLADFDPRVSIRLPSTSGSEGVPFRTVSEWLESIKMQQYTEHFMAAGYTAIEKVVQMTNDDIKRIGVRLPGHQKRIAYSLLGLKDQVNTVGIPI

[24] = biological target: 456 kinases (of these 395 non-mutant kinases) (Homo sapiens, UniProt P28482); settings: ERK2; 10 μM
Chain of 456 kinases (of these 395 non-mutant kinases) (Homo sapiens, UniProt P28482) (P28482 2-360 limits assumed, change not shown): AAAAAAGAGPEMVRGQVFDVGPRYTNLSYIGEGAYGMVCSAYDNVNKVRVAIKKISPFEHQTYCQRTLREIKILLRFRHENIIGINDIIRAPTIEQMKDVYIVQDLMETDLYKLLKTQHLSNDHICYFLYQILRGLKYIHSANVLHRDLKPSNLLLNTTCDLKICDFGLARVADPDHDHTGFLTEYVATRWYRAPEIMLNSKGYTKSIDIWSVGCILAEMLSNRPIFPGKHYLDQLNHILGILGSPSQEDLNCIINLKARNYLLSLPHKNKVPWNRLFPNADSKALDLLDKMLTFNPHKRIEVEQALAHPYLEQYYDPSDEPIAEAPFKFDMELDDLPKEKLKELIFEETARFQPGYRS

[25] = biological target: 456 kinases (of these 395 non-mutant kinases) (Homo sapiens, UniProt Q9H0K1); settings: SIK2; 10 μM
[26] = biological target: 456 kinases (of these 395 non-mutant kinases) (Homo sapiens, UniProt Q15303); settings: ERBB4; 10 μM
[27] = biological target: 456 kinases (of these 395 non-mutant kinases) (Homo sapiens, UniProt P42336, E545A); settings: PIK3CA(E545A); 10 μM
[28] = biological target: 456 kinases (of these 395 non-mutant kinases) (Homo sapiens, UniProt P27361); settings: ERK1; 10 μM
Chain of 456 kinases (of these 395 non-mutant kinases) (Homo sapiens, UniProt P27361) (P27361 2-379 limits assumed, change not shown): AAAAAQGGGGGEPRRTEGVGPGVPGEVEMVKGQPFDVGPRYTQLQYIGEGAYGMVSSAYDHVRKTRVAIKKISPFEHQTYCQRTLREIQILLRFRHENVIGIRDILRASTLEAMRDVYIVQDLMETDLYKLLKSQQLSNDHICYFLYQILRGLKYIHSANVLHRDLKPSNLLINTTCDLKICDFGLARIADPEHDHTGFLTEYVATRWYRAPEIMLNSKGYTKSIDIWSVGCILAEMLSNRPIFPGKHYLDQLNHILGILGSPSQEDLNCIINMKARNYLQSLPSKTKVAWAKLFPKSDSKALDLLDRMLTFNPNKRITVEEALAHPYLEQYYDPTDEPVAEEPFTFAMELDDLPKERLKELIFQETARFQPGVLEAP

[29] = biological target: 456 kinases (of these 395 non-mutant kinases) (Homo sapiens, UniProt P42685); settings: FRK; 10 μM
[30] = biological target: 456 kinases (of these 395 non-mutant kinases) (Homo sapiens, UniProt P49760); settings: CLK2; 10 μM
[31] = biological target: 456 kinases (of these 395 non-mutant kinases) (Homo sapiens, UniProt Q9Y5S2); settings: MRCKB; 10 μM
[32] = biological target: 456 kinases (of these 395 non-mutant kinases) (Homo sapiens, UniProt Q99640); settings: PKMYT1; 10 μM

Chain of 456 kinases (of these 395 non-mutant kinases) (Homo sapiens, UniProt P30530) (P30530 26-894 limits assumed, change not shown): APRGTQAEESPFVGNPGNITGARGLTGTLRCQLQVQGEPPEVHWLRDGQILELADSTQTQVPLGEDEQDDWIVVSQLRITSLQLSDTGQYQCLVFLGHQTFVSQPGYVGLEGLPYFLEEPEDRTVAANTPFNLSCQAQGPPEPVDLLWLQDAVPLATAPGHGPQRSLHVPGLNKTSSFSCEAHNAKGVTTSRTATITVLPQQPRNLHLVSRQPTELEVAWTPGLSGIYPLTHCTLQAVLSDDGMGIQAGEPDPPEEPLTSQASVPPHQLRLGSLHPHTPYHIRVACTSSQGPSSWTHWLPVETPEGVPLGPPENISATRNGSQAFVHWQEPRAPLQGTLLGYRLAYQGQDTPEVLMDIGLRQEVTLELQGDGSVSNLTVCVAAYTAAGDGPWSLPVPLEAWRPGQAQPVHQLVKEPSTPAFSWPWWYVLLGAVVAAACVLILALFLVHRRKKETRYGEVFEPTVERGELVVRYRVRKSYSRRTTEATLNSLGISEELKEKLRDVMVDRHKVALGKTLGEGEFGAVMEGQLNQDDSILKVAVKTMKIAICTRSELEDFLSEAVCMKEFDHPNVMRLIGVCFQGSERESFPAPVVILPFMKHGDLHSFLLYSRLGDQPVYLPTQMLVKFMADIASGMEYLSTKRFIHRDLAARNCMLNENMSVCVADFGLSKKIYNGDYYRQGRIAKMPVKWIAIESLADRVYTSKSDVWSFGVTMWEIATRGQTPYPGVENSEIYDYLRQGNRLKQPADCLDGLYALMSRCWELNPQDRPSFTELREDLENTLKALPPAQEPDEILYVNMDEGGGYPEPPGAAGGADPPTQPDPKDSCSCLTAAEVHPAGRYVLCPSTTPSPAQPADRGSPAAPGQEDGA

CCc1ccccc1NC(=O)c1c(C)nsc1Nc1cnc2cc(F)ccc2n1 [Example 20, N-(2-Ethylphenyl)-5-[(6-fluoroquinoxalin-2-yl)amino]-3-methyl-1,2-thiazole-4-carboxamide]
% Ctrl @ 10 μM [1]: 95 % Ctrl | % Ctrl @ 10 μM [2]: 90 % Ctrl | % Ctrl @ 10 μM [3]: 100 % Ctrl | % Ctrl @ 10 μM [4]: 100 % Ctrl | % Ctrl @ 10 μM [5]: 85 % Ctrl | % Ctrl @ 10 μM [6]: 97 % Ctrl | % Ctrl @ 10 μM [7]: 100 % Ctrl | % Ctrl @ 10 μM [8]: 100 % Ctrl | % Ctrl @ 10 μM [9]: 68 % Ctrl | % Ctrl @ 10 μM [10]: 86 % Ctrl | % Ctrl @ 10 μM [11]: 84 % Ctrl | % Ctrl @ 10 μM [12]: 100 % Ctrl | % Ctrl @ 10 μM [13]: 55 % Ctrl | % Ctrl @ 10 μM [14]: 97 % Ctrl | % Ctrl @ 10 μM [15]: 100 % Ctrl | % Ctrl @ 10 μM ([16]; RSK4(Kin.Dom.1-N-terminal)): 100 % Ctrl | % Ctrl @ 10 μM ([16]; RSK4(Kin.Dom.2-C-terminal)): 75 % Ctrl | % Ctrl @ 10 μM [17]: 94 % Ctrl | % Ctrl @ 10 μM [18]: 100 % Ctrl | % Ctrl @ 10 μM [19]: 56 % Ctrl | % Ctrl @ 10 μM [20]: 100 % Ctrl | % Ctrl @ 10 μM [21]: 93 % Ctrl | % Ctrl @ 10 μM [22]: 78 % Ctrl | % Ctrl @ 10 μM [23]: 88 % Ctrl | % Ctrl @ 10 μM [24]: 96 % Ctrl | % Ctrl @ 10 μM [25]: 84 % Ctrl | % Ctrl @ 10 μM [26]: 100 % Ctrl | % Ctrl @ 10 μM [27]: 95 % Ctrl | % Ctrl @ 10 μM [28]: 100 % Ctrl | % Ctrl @ 10 μM [29]: 66 % Ctrl | % Ctrl @ 10 μM [30]: 77 % Ctrl | % Ctrl @ 10 μM [31]: 61 % Ctrl | % Ctrl @ 10 μM [32]: 100 % Ctrl
